Measured values published in publication PMC7188728, “A phase I study investigation of metabolism, and disposition of [^14C]-anlotinib after an oral administration in patients with advanced refractory solid tumors” (Cancer Chemotherapy and Pharmacology, 2020).

Experiment: Metabolite radio-profiling (LC-RAM, LC-MS/MS) of plasma, urine and feces
Type: in vivo, human
Settings: pooled plasma 2–96 h, subjects 03–06
Procedure: An equal volume of 2, 4, 8, 12, 24, and 96 h plasma sample was pooled by time-point across subject 03 ~ 06, to give six pooled plasma samples for metabolite profiling. An appropriate volume (3x, v/v) of acetonitrile was added to a portion of the pooled plasma sample, followed by vortexing ca. 2 min. After storage in a refrigerator for ca. 30 min, the mixture was centrifuged at ca. 10000 g at 4 °C for 10 min. The supernatant was then separated from the PES, which was suspended with water, followed by addition of methanol (2x, v/v) twice. The three extracts were combined and evaporated to dryness under a nitrogen stream by an N-Evap evaporator at room temperature. The residues were reconstituted with an appropriate volume of methanol:water (1:1, v/v) and centrifuged at ca. 10000 g at 4 ℃ for 10 min. The supernatant was subjected to HPLC radio-profiling.
Four pooled human urine samples (subject 03 ~ 06) were pooled from 0 to 432 h based on equal volume ratios from the individual patients across time intervals. In addition, three pooled urine samples (0–48, 48–120 and 360–432 h) (subjects 03–06) were prepared by pooling human urine samples across subjects and time points. Portion of the pooled urine sample was evaporated to a small volume under a nitrogen stream and extracted with methanol (3x, v/v) followed by centrifuged at ca. 10000 g at 4 ℃ for 10 min. The supernatant was reconstituted with an appropriate volume of methanol:water (1:1, v/v) and centrifuged at ca. 10000 g at 4 ℃ for 10 min. The supernatant was subjected to HPLC radio-profiling.
Four human fecal samples (0–432 h) were prepared by pooling feces from individual subjects (Subjects 03–06). In addition, three pooled human fecal samples (0–48, 48–120 and 360–432 h) were prepared by pooling feces samples across subjects and time points. The pooled fecal homogenate was extracted with methanol (3x, v/v) and the mixture was vortexed, and centrifuged at ca. 10000 g at 4 ℃ for 10 min. The supernatant was then separated from the PES, which was suspended with water, followed by addition of methanol twice. The three extracts were combined and evaporated to dryness under a nitrogen stream by an N-Evap evaporator at room temperature. The residues were reconstituted with an appropriate volume of methanol:water (1:1, v/v) and centrifuged at ca. 10000 g at 4 ℃ for 10 min prior to analysis.
HPLC coupled with radioactivity monitor (LC-RAM) was used to isolate and quantitate [^14C] anlotinib and its metabolites. The plasma and fecal extracts as well as urine supernatants were subjected to HPLC separation, fractionation, and eluent collection. The radioactivity in each fraction was monitored by solid scintillation counting using a Packard TopCount® NXT™ Microplate Counter. The radio-profiles were then reconstructed using ARC® Convert software. The peak area of each radioactivity peak/region was integrated using ARC® Evaluation software, and the percent distribution of each peak/region was calculated (%TRA for plasma or %Dose for urine and feces).
Metabolites were characterized and/or identified by LC–MS/MS in conjunction with on-line radioactivity detection. Structures of metabolites were proposed by interpretation of the mass spectral fragmentation pattern, as well as chromatographic behaviors and metabolic pathways.

Compound | Drug-related component in human plasma (radio-profile)
COc1cc2c(Oc3ccc4[nH]c(C)cc4c3F)ccnc2cc1O [M18] | detected
COc1cc2c(Oc3ccc4[nH]c(C)cc4c3F)ccnc2cc1OCC1(O)CC1 [M28] | detected
COc1cc2c(Oc3ccc4[nH]c(C(=O)O)cc4c3F)ccnc2cc1OCC1(N)CC1 [M30] | major drug-related component
